# Patent US20020002294A1, “Estrogenic compounds as antiangiogenic agents” (priority 1997, published 2002)
# Key:
# tubulin [1] = assay: inhibition of tubulin polymerization in vitro (turbidity at 350 nm); type: biochemical; conditions: read-out: IC50 (concentration required to inhibit tubulin polymerization by 50%); mean ± S.D.; method of Example 1
# Protocol: Anti-mitotic activity can be evaluated by testing the ability of an estradiol derivative to inhibit tubulin polymerization and microtubule assembly in vitro. Microtubule assembly is followed in a Gilford recording spectrophotometer (model 250 or 2400S) equipped with electronic temperature controllers. A reaction mixture (all concentrations refer to a final reaction volume of […]) contains 1.0 M monosodium glutamate (ph 6.6), 1. omg/ml (10 μM) tubulin, 1.0 mM MgCl2, 4% (v/v) dimethylsulfoxide and 20-75μM of a composition to be tested. The 0.24 ml reaction mixtures are incubated for 15 min. at 37° C. and then chilled on ice. After addition of 10p1 2.5mM GTP, the reaction mixture is transferred to a cuvette at 0° C., and a baseline established. At time zero, the temperature controller of the spectrophotometer is set at 37° C. Microtubule assembly is evaluated by increased turbity at 350 nm.
# A. Each reaction mixture (all concentrations refer to the final reaction volume of 0.25 ml) contained 1.0 M monosodium glutamate (pH 6.6), 1.0 mg/ml (10 μM) tubulin, 1.0 mM MgCl2, 4% (v/v) dimethylsulfoxide, and either 0 (curve 1), 20μM (curve 2), 40 μM (curve 3), or 75 μM (curve 4) 2-methoxyestradiol. The 0.24 ml reaction mixtures were incubated for 15 min. at 37° C and chilled on ice. After addition of 10 μl of 2.5 mM GTP the reaction mixtures were transferred to cuvettes held at 0° C., and baselines were established. At time zero the temperature controller was set at 37° C. At the times indicated by the vertical dashed lines the temperature controller was set at the indicated temperatures.
# B. Each reaction mixture contained 0.8 M monosodium glutamate (pH 6.6), 1.2 mg/ml (12 μM) tubulin, 4% (v/v) dimethylsulfoxide, and either 0 (curve 1), 1.0 FM (curve 2), 2.0 ,M (curve 3), 3.0 μM (curve 4), or 4.0 μM (curve 5) 2-methoxyestradiol. The 0.24 ml reaction mixtures were incubated for 15 min. at 26° C. and chilled on ice. After addition of 10μl of 10 mM GTP the reaction mixtures were transferred to cuvettes held at 0° C., and baselines were established. At time zero the temperature controller was set at 26° C. At the time indicated by vertical dashed line the temperature controller was set at 0° C.
# The method is given in Example 1.
# S.D., standard deviation.
# Renal cell lines = assay: Human Tumor Cell Panel Assay in vitro, renal panel; type: cell-based; set-up: key: Most sensitive cell panes are marked with ✓
# From the text: (§1) The tubulin activities, breast cancer cell line activities, and the cell panels most sensitive to selected analogs are shown in Tables 3 and 4.
# Melanoma cell lines = assay: Human Tumor Cell Panel Assay in vitro, melanoma panel; type: cell-based; set-up: key: Most sensitive cell panes are marked with ✓
# From the text: as §1
# tubulin [2] = assay: tubulin activities of 2-ME analogs (Table 3); type: biochemical
# CNS cell lines = assay: Human Tumor Cell Panel Assay in vitro, CNS panel; type: cell-based; set-up: key: Most sensitive cell panes are marked with ✓
# From the text: as §1
# [3] = tested on: 8 human breast cancer cell lines; assay: human tumor cell panel assay in vitro, breast panel; type: cell-based; set-up: key to Most Sensitive Cell Lines in Human Tumor Cell Panel Assay: Breast: Most sensitive cell panes are marked with ✓; conditions: for Most Sensitive Cell Lines in Human Tumor Cell Panel Assay: Breast: 8 cell lines, only MCF-7 and T-47D express estrogen and progesterone receptors; for IC50: Homo sapiens, read-out: Tumor Panel: Average log IC50(Molar) against 8 human breast cancer cell lines (converted); for IC50 / Tumor Panel: Average log IC50(Molar) against 8 human breast cancer cell lines: cell panel assay in vitro, two values per cell separated by /
# From the text: as §1
# [4] = tested on: Ovarian cell lines (especially OVCAR-3); assay: Human Tumor Cell Panel Assay in vitro, ovarian panel; type: cell-based; set-up: key: Most sensitive cell panes are marked with ✓
# From the text: as §1
# [5] = tested on: MDA-MB-435 estrogen receptor-negative human breast carcinoma cells; assay: In Vivo Tumor Growth Inhibition; set-up: species or system SCID mice
# Protocol: To determine the antitumor activity of 2-ME and derivatives, SCID mice were s.c. inoculated with 10^6 MDA-MB-435 estrogen receptor-negative human breast carcinoma cells. Treatment was initiated on day 12 when tumor volumes reached 75-100 mm3 in volume. Drugs were suspended in 0.5 g/100 ml of carboxymethylcellulose with sterile glass beads, vortexed for 5 minutes, and administered p.o. in a volume of 0.1 ml. Control mice received 0.1 ml of carboxymethylcellulose p.o. Serial caliper measurements of perpendicular diameters were used to calculate tumor volume using the following: (shortest diameter)^2×(longest diameter)×0.52. T/C was calculated as the volume of treated tumors over the volume of control tumors. A smaller number indicates a greater inhibition of tumor growth.
# [6] = tested on: corneal neovascularization; assay: Mouse Corneal Micropocket Assay; type: in vivo, mice; conditions: daily oral, 5 days
# Protocol: Five- to 7-week-old SCID female mice were obtained from Massachusetts General Hospital (Boston, Mass.), Immunocompetent 7-9-week-old female C57BL/6 mice were obtained from ARCH Technical Services, Children's Hospital (Boston, Mass.). All animal studies were conducted according to protocols approved by the Animal Ethics Committee of Children's Hospital. Animals were anesthetized in a methoxyflurane (Pittman-Moore, Mundelein, Ill.) chamber prior to all procedures and were observed until fully recovered. Animals were sacrificed by a lethal dose of methoxyflurane.
# Mouse Corneal Micropocket Assay To study the effect of microtubule inhibitors on angiogenesis in vivo, a model of angiogenesis in the mouse cornea was used in […] mice as described previously (Kenyon, B. B., Voest, E. E., Chen, C. C., Folkman, J., and D'Amato, R. J. A model of angiogenesis in the mouse cornea. Invest. Ophthalmol. & Visual Sci., 76: 1625-1632, 1996). In brief, after animals were anesthetized, corneal micropockets were created in both eyes with a modified von Graefe cataract knife. Into each pocket, a 0.4 mm ×0.4 mm×0.2 mm sucrose aluminum sulfate (Bukh Meditee, Copenhagen, Denmark) pellet coated with hydron polymer type NCC (IHN Sciences, New Brunswick, N.J.) containing 80 ng of bFGF or 160 ng of human recombinant […] (gift from Reprogenesis, Cambridge, Mass.) was implanted 1.0-1.2 mm from the limbal vessels (bFGF experiments) or 0.5-0.7 mm from the limbus (VEGF experiments). Erythromycin ointment (E. Fougera, Melville, N.Y.) was applied to each operated eye. The sucralfate acts to stabilize the growth factor and to slow its release from the hydron. Before testing each drug in this assay, we found the maximal dose that could be administered daily for 5 consecutive days without producing signs of toxicity (i.e., no hair loss, diarrhea, infection, lethargy, or weight loss). The treated groups received daily oral administration for 5 consecutive days of the stated dosage of 2-ME or a derivative thereof suspended in 0.5 g/100 ml of carboxymethylcellulose.
# Treatment was started on the day of pellet implantation. […] For this purpose, the eyes of the mice were examined by slit-lamp biomicroscopy. Area of corneal neovascularization was calculated using a modified formula for a half-ellipse: Area (mm^2)=[π×clock hours×length (mm)×0.2 mm]. This formula provides the most accurate approximation of the area of neovascularization that grows toward the pellet. (Kenyon, B. B., Voest, E. E., Chen, C. C., Folkman, J., and D'Amato, R. J. A model of angiogenesis in the mouse cornea. Invest. Ophthalmol. & Visual Sci., 76: 1625-1632, 1996).
# [7] = 150 mg/kg p.o., duration not stated
SMILES,IC50 (tubulin [1]) [µM],IC50 (tubulin [2]) [µM],Most Sensitive Cell Lines in Human Tumor Cell Panel Assay: CNS (CNS cell lines),Most Sensitive Cell Lines in Human Tumor Cell Panel Assay: Breast [3],Most Sensitive Cell Lines in Human Tumor Cell Panel Assay: Ovarian [4],further results
CC12CCC3c4cc(Br)c(O)cc4CCC3C1CCC2O (stereo not drawn) [2-Bromoestradiol],4.5 ± 0.6,–,–,–,–,–
CC12CCC3c4cc(F)c(O)cc4CCC3C1CCC2O (stereo not drawn) [2-Fluoroestradiol],27 ± 6,–,–,–,–,–
C#CC1(O)CCC2C3CCc4cc(O)c(OC)cc4C3CCC21C (stereo not drawn) [2-Methoxy-17-ethynylestradiol],> 40,–,–,–,–,–
COc1cc2c(cc1OC)C1CCC3(C)C(O)CCC3C1CC2 (stereo not drawn) [2-Methoxyestradiol-3-0-methyl ether],> 40,–,–,–,–,–
COc1cc2c(cc1O)CCC1C2CCC2(C)C(O)C(O)CC12 (stereo not drawn) [2-Methoxyestriol],> 40,–,–,–,–,–
COc1ccc2c(c1OC)CCC1C2CCC2(C)C(O)CCC12 (stereo not drawn) [4-Methoxyestradiol-3-0-methyl ether],> 40,–,–,–,–,–
COc1c(O)ccc2c1CCC1C2CCC2(C)C(O)CCC12 (stereo not drawn) [4-Methoxyestradiol],> 40,–,–,–,–,–
COc1ccc(CCc2cc(OC)c(OC)c(OC)c2)cc1O [Dihydrocombretastatin A-4],0.63 ± 0.03,–,–,–,–,–
COc1ccc2c(c1)CCC1C2CCC2(C)C(O)CCC12 (stereo not drawn) [Estradiol-3-0-methyl ether],> 40,–,–,–,–,–
C[C@]12CC[C@@H]3c4ccc(O)cc4CC[C@H]3[C@@H]1C[C@@H](O)[C@@H]2O [Estriol],> 40,–,–,–,–,–
CC=Cc1cc2c(cc1O)CCC1C2CCC2(C)C(O)CCC12 (stereo not drawn) [NSC 667047],–,1.2 ± 0.1,✓,✓,✓,Most Sensitive Cell Lines in Human Tumor Cell Panel Assay: Renal (Renal cell lines): ✓; Most Sensitive Cell Lines in Human Tumor Cell Panel Assay: Melanoma (Melanoma cell lines): ✓; IC50 [3]: 0.1 µM; Tumor Panel: Average log IC50(Molar) against 8 human breast cancer cell lines [3]: −6.9 log Molar; T/C (volume of treated tumors over volume of control tumors) ([5]; 29 days at 75 mg/kg p.o.): 0.40
C=Cc1cc2c(cc1O)CCC1C2CCC2(C)C(O)CCC12 (stereo not drawn) [NSC 667049],–,5.2 ± 1,✓,✓,✓,Most Sensitive Cell Lines in Human Tumor Cell Panel Assay: Renal (Renal cell lines): ✓; Most Sensitive Cell Lines in Human Tumor Cell Panel Assay: Melanoma (Melanoma cell lines): ✓; IC50 [3]: 2.51 µM
CCOc1cc2c(cc1O)CCC1C2CCC2(C)C(O)CCC12 (stereo not drawn) [NSC 671043],–,–,✓,✓,✓,"IC50 [3]: 0.0316 µM; Tumor Panel: Average log IC50(Molar) against 8 human breast cancer cell lines [3]: −7.7 log Molar; T/C (volume of treated tumors over volume of control tumors) [5, 7]: 0.9"
CC(=O)Nc1cc2c(cc1O)CCC1C2CCC2(C)C(O)CCC12 (stereo not drawn) [NSC 673651],–,–,–,–,–,Tubulin IC50 (tubulin [2]): weak; IC50 [3]: 30.9 µM
CC12CCC3c4cc(OCC(F)(F)F)c(O)cc4CCC3C1CCC2O (stereo not drawn) [NSC 678473],–,1.7,–,–,–,IC50 [3]: 0.794 µM; Tumor Panel: Average log IC50(Molar) against 8 human breast cancer cell lines [3]: −5.8 log Molar
CCOc1cc2c(cc1O)C(=O)CC1C2CCC2(C)C(O)CCC12 (stereo not drawn) [NSC 679431],–,4.8,✓,✓,✓,"Most Sensitive Cell Lines in Human Tumor Cell Panel Assay: Renal (Renal cell lines): ✓; Most Sensitive Cell Lines in Human Tumor Cell Panel Assay: Melanoma (Melanoma cell lines): ✓; T/C (volume of treated tumors over volume of control tumors) [5, 7]: 0.9"
C[C@]12CC[C@@H]3c4cc(OCC(F)(F)F)c(O)cc4C(=O)C[C@H]3[C@@H]1CC[C@@H]2O [NSC 681684],–,6,–,–,–,inhibition in corneal pocket assay ([6]; 225 mg/kg): 36%; Tumor Panel: Average log IC50(Molar) against 8 human breast cancer cell lines [3]: −5.06 log Molar
CC#Cc1cc2c(cc1O)CCC1C2CCC2(C)C(O)CCC12 (stereo not drawn) [NSC 682429],–,2.2,✓,✓,✓,"inhibition in corneal pocket assay ([6]; 300 mg/kg): 34%; T/C (volume of treated tumors over volume of control tumors) ([5]; 44 days at 225 mg/kg p.o.): 0.25; tumor growth inhibition, comparison in words (FIG. 4) ([5]; FIG. 4): most effective tumor inhibiting compound tested"
CCOc1cc2c(cc1O)C(O)C[C@@H]1[C@@H]2CC[C@]2(C)[C@@H](O)CC[C@@H]12 (stereo partly drawn) [NSC 683688],–,–,✓,✓,✓,Most Sensitive Cell Lines in Human Tumor Cell Panel Assay: Renal (Renal cell lines): ✓; Most Sensitive Cell Lines in Human Tumor Cell Panel Assay: Melanoma (Melanoma cell lines): ✓; Tumor Panel: Average log IC50(Molar) against 8 human breast cancer cell lines [3]: −6.3 log Molar
